Data on three compounds can be found in ChEMBL document CHEMBL1909046, “DrugMatrix in vitro pharmacology data”.

Chain of Mitogen-activated protein kinase 3 (P27361 whole entry): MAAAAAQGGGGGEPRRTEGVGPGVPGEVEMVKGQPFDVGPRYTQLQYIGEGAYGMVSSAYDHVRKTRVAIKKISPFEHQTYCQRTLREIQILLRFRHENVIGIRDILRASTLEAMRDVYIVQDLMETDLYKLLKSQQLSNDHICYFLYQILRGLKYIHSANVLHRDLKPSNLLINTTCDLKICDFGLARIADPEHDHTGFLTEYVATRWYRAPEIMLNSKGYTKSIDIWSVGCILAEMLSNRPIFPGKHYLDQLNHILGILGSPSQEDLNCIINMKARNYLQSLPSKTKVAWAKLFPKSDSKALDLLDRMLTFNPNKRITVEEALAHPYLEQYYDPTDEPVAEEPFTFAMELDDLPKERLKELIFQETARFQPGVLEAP
Chain of C-C chemokine receptor type 5 (P51681 whole entry): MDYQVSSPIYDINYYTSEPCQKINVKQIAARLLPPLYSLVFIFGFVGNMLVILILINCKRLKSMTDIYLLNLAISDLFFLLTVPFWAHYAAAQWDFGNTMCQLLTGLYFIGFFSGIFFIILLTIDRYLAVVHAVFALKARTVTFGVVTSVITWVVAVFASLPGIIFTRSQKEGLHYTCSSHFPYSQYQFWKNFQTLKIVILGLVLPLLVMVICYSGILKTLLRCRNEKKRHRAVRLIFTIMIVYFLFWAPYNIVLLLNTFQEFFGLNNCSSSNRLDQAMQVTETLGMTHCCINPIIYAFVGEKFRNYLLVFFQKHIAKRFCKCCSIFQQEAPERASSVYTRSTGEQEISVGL
Chain of Adenosine receptor A2a (P29274 whole entry): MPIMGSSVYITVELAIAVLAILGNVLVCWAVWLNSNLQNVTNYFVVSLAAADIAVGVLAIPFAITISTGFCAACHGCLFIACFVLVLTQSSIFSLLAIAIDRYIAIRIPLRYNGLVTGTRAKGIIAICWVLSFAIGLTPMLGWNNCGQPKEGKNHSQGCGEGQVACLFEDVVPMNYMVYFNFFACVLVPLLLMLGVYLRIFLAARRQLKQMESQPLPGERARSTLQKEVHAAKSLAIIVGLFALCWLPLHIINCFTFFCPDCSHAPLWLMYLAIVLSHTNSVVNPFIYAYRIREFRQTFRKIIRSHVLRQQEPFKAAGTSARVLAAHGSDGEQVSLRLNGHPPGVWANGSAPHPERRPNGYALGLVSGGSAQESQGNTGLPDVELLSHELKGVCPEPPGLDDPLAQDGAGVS

Test system in one test: not listed separately
Briefly: DRUGMATRIX: Nicotinic Acetylcholine radioligand binding (ligand: [125I] Epibatidine). Type of test: cell membranes, Membrane. The conditions noted are these: imr-32; Not Active = under 50% inhibition at 10 µM.
Turning to `C=C1CC[C@H](O)C/C1=C/C=C1\CCC[C@]2(C)[C@@H]([C@H](C)/C=C/[C@H](C)C(C)C)CC[C@@H]12` [ERGOCALCIFEROL], the IC50 result is recorded as “Not Active” and the Ki entry is recorded as “Not Active”.
As to `CCc1cccc2c3c([nH]c12)C(CC)(CC(=O)O)OCC3` (stereo unspecified) [ETODOLAC], the IC50 result was “Not Active” and the Ki entry is listed as “Not Active”.
As to CARBOPLATIN, the IC50 entry is “Not Active” and the Ki entry is listed as “Not Active”.

In the next test the target is Substance-P receptor (Homo sapiens, UniProt P25103). Also: in other assays of this panel Not Active means under 50% inhibition at 10 µM.
Chain of Substance-P receptor (P25103 whole entry): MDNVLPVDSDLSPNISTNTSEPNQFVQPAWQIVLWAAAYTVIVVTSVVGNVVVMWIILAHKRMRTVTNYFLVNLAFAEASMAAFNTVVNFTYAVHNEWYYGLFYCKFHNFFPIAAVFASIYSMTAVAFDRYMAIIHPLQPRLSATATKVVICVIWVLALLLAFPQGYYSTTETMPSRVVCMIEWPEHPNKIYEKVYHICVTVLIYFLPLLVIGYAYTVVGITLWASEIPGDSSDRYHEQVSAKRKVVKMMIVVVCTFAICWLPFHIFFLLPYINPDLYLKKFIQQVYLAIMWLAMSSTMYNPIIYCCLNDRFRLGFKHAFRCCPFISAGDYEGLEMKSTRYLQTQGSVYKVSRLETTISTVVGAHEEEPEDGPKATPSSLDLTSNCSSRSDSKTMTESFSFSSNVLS
Experiment: not given
The note with it: cho. In kind it is cell membranes, CHO, Membrane.
In the case of `C=C1CC[C@H](O)C/C1=C/C=C1\CCC[C@]2(C)[C@@H]([C@H](C)/C=C/[C@H](C)C(C)C)CC[C@@H]12` [ERGOCALCIFEROL], the IC50 result was “Not Active”.
The same measure, in the same setting: the result for `CCc1cccc2c3c([nH]c12)C(CC)(CC(=O)O)OCC3` (stereo unspecified) [ETODOLAC] reads “Not Active”.
With CARBOPLATIN, the IC50 result was “Not Active” and the Ki result is listed as “Not Active”.

Test system in another test: not listed separately
The experiment in a line: DRUGMATRIX: GABAA, Muscimol, Central radioligand binding (ligand: [3H] Muscimol). In kind it is cell membranes, Rattus norvegicus, Wistar, Brain, Membrane. The note with it: Not Active = under 50% inhibition at 10 µM.
Consider `C=C1CC[C@H](O)C/C1=C/C=C1\CCC[C@]2(C)[C@@H]([C@H](C)/C=C/[C@H](C)C(C)C)CC[C@@H]12` [ERGOCALCIFEROL], for which the IC50 result was “Not Active” and the Ki entry is “Not Active”.
For the compound `CCc1cccc2c3c([nH]c12)C(CC)(CC(=O)O)OCC3` (stereo unspecified) [ETODOLAC], the IC50 result is recorded as “Not Active” and the Ki result is given as “Not Active”.
Regarding CARBOPLATIN, the IC50 result is “Not Active” and the Ki result was “Not Active”.

The target of the next test is T1, Calcitonin receptor (Homo sapiens, UniProt P30988). Also: in other assays of this panel Not Active means under 50% inhibition at 10 µM.
T1 sequence (P30988 whole entry): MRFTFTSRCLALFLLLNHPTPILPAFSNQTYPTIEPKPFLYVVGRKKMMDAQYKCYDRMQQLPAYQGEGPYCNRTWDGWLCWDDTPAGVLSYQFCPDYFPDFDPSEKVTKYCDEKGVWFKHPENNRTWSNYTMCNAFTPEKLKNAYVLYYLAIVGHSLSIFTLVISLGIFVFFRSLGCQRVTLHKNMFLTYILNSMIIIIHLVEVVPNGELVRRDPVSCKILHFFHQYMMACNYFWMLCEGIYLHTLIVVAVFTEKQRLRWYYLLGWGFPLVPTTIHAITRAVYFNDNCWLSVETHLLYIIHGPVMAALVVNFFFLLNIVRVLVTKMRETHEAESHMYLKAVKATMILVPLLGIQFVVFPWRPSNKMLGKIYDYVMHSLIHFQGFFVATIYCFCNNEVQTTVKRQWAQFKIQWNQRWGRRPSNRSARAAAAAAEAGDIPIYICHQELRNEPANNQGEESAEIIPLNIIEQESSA
Experiment: not given
In kind it is cell membranes, Membrane. The conditions noted are these: t47d.
In the case of `C=C1CC[C@H](O)C/C1=C/C=C1\CCC[C@]2(C)[C@@H]([C@H](C)/C=C/[C@H](C)C(C)C)CC[C@@H]12` [ERGOCALCIFEROL], the IC50 result is reported as “Not Active”.
Still for that read-out and setting: the value for `CCc1cccc2c3c([nH]c12)C(CC)(CC(=O)O)OCC3` (stereo unspecified) [ETODOLAC] was “Not Active”.
In the case of CARBOPLATIN, the IC50 entry is “Not Active” and the Ki entry is “Not Active”.

Test system in another test: not listed separately
The experiment in a line: DRUGMATRIX: Potassium Channel [KATP] radioligand binding (ligand: [3H] Glyburide). Type of test: cell membranes, Membrane. The conditions noted are these: hit-t15; Not Active = under 50% inhibition at 10 µM.
As to `C=C1CC[C@H](O)C/C1=C/C=C1\CCC[C@]2(C)[C@@H]([C@H](C)/C=C/[C@H](C)C(C)C)CC[C@@H]12` [ERGOCALCIFEROL], the IC50 result is “Not Active” and the Ki result is reported as “Not Active”.
With `CCc1cccc2c3c([nH]c12)C(CC)(CC(=O)O)OCC3` (stereo unspecified) [ETODOLAC], the IC50 entry is on record as “Not Active” and the Ki result was “Not Active”.
For CARBOPLATIN, the IC50 result is listed as “Not Active” and the Ki entry is given as “Not Active”.

The next test concerns the target Glycine receptor (Rattus norvegicus, UniProt P22771+P24524+P07727+P20781). Also: in other assays of this panel Not Active means under 50% inhibition at 10 µM.
Experiment: not given
In kind it is cell membranes, Wistar, Spinal cord, Membrane.
Conditions: not given
For the compound `C=C1CC[C@H](O)C/C1=C/C=C1\CCC[C@]2(C)[C@@H]([C@H](C)/C=C/[C@H](C)C(C)C)CC[C@@H]12` [ERGOCALCIFEROL], the IC50 result was “Not Active”.
Same read-out and setting: the result for `CCc1cccc2c3c([nH]c12)C(CC)(CC(=O)O)OCC3` (stereo unspecified) [ETODOLAC] reads “Not Active”.
For CARBOPLATIN, the IC50 entry is “Not Active” and the Ki entry is on record as “Not Active”.

A further test has as its target Mitogen-activated protein kinase 3 (Homo sapiens, UniProt P27361). The experiment in a line: DRUGMATRIX: Protein Serine/Threonine Kinase, ERK1 enzyme inhibition (substrate: Myelin Basic Protein). More on the design: species or system Escherichia coli. The note with it: Not Active = under 50% inhibition at 10 µM.
As to `C=C1CC[C@H](O)C/C1=C/C=C1\CCC[C@]2(C)[C@@H]([C@H](C)/C=C/[C@H](C)C(C)C)CC[C@@H]12` [ERGOCALCIFEROL], the IC50 result is recorded as “Not Active”.
Still for that read-out and setting: the result for `CCc1cccc2c3c([nH]c12)C(CC)(CC(=O)O)OCC3` (stereo unspecified) [ETODOLAC] reads “Not Active”.
Regarding CARBOPLATIN, the IC50 result was “Not Active” and the Ki entry is reported as “Not Active”.

The target in another test is T2, Angiotensin-converting enzyme (Oryctolagus cuniculus, UniProt P12822).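 Also: enzymatic inhibition of angiotensin-converting enzyme measured with FAPGG as the substrate; in other assays of this panel Not Active means under 50% inhibition at 10 µM.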
T2 sequence (P12822 whole entry): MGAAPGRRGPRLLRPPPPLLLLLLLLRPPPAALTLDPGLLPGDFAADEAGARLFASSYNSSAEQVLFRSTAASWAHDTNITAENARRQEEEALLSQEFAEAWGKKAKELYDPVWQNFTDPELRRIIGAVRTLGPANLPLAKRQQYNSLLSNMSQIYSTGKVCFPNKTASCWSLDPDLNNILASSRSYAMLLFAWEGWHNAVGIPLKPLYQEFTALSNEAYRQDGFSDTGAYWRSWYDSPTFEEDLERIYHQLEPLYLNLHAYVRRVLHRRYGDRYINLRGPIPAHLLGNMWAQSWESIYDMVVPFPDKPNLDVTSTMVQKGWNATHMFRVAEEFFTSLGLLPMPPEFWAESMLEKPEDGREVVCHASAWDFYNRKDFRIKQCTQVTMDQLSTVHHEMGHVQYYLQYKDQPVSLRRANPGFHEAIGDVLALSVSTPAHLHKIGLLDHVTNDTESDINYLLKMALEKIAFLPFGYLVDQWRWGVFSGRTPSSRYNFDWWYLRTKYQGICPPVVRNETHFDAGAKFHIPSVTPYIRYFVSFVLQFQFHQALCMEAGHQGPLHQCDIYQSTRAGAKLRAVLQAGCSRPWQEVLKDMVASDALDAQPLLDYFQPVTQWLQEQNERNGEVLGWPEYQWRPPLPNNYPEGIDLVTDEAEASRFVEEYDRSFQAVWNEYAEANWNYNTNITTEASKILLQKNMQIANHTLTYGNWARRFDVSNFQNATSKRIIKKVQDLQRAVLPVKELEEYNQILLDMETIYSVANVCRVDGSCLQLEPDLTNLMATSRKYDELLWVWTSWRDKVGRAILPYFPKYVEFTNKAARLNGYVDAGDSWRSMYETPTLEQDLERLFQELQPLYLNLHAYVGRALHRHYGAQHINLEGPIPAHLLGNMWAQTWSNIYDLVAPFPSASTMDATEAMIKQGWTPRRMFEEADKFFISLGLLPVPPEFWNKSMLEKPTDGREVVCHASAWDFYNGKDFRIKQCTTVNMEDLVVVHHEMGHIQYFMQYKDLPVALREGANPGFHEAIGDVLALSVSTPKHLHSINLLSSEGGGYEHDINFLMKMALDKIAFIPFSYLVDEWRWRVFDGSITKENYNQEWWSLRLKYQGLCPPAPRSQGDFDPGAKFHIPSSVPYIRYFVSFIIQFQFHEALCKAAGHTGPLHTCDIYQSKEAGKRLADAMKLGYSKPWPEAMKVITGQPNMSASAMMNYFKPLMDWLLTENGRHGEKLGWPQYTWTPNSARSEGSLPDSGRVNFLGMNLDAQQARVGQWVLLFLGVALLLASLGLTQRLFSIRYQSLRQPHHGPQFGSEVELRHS
The experiment in a line: biochemical. Type of test: tissue-based, Lung.
Conditions: not given
In the case of `C=C1CC[C@H](O)C/C1=C/C=C1\CCC[C@]2(C)[C@@H]([C@H](C)/C=C/[C@H](C)C(C)C)CC[C@@H]12` [ERGOCALCIFEROL], the IC50 entry is given as “Not Active”.
The same measure, in the same setting: the value for `CCc1cccc2c3c([nH]c12)C(CC)(CC(=O)O)OCC3` (stereo unspecified) [ETODOLAC] was “Not Active”.
Turning to CARBOPLATIN, the IC50 result was “Not Active” and the Ki entry was “Not Active”.

Another test deals with T3, Substance-K receptor (Homo sapiens, UniProt P21452).
T3 sequence (P21452 whole entry): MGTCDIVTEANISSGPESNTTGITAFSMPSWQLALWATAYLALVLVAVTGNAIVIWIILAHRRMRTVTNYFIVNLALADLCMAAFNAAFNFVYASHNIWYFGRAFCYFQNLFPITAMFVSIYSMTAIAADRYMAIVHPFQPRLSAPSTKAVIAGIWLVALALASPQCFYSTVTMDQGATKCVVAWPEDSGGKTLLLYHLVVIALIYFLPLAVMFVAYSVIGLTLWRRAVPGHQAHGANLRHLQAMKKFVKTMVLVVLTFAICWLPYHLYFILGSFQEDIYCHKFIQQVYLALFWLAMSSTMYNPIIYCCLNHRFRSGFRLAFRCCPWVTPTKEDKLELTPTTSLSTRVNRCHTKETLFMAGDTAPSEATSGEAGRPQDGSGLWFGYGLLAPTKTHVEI
Experiment: not given
In kind it is cell membranes, CHO, Membrane. The conditions noted are these: cho.
In the case of `C=C1CC[C@H](O)C/C1=C/C=C1\CCC[C@]2(C)[C@@H]([C@H](C)/C=C/[C@H](C)C(C)C)CC[C@@H]12` [ERGOCALCIFEROL], the IC50 result is “Not Active”.
Same read-out and setting: the result for `CCc1cccc2c3c([nH]c12)C(CC)(CC(=O)O)OCC3` (stereo unspecified) [ETODOLAC] reads “Not Active”.
As to CARBOPLATIN, the IC50 entry was “Not Active” and the Ki entry is on record as “Not Active”.

The next test has as its target Adenosine receptor A2a (Homo sapiens, UniProt P29274). The experiment in a line: DRUGMATRIX: Adenosine A2A radioligand binding (ligand: […]). In kind it is cell membranes, HEK293, Membrane. The note with it: hek293; Not Active = under 50% inhibition at 10 µM.
`C=C1CC[C@H](O)C/C1=C/C=C1\CCC[C@]2(C)[C@@H]([C@H](C)/C=C/[C@H](C)C(C)C)CC[C@@H]12` [ERGOCALCIFEROL]: the IC50 result is “Not Active”.
Same read-out and setting: the result for `CCc1cccc2c3c([nH]c12)C(CC)(CC(=O)O)OCC3` (stereo unspecified) [ETODOLAC] reads “Not Active”.
With CARBOPLATIN, the IC50 entry is recorded as “Not Active” and the Ki result is recorded as “Not Active”.

Test system in a further test: not listed separately
Briefly: DRUGMATRIX: Interleukin IL-1 radioligand binding (ligand: [125I] interleukin 1beta). In kind it is cell membranes, Membrane. The note with it: nih3t3; Not Active = under 50% inhibition at 10 µM.
Turning to `C=C1CC[C@H](O)C/C1=C/C=C1\CCC[C@]2(C)[C@@H]([C@H](C)/C=C/[C@H](C)C(C)C)CC[C@@H]12` [ERGOCALCIFEROL], the IC50 entry is given as “Not Active” and the Ki entry was “Not Active”.
As to `CCc1cccc2c3c([nH]c12)C(CC)(CC(=O)O)OCC3` (stereo unspecified) [ETODOLAC], the IC50 result is listed as “Not Active” and the Ki result was “Not Active”.
CARBOPLATIN: the IC50 entry is “Not Active” and the Ki result is recorded as “Not Active”.

A further test has as its target C-C chemokine receptor type 5 (Homo sapiens, UniProt P51681). Also: in other assays of this panel Not Active means under 50% inhibition at 10 µM.
Experiment: not given
In kind it is cell membranes, Membrane. The conditions noted are these: hek293.
With `C=C1CC[C@H](O)C/C1=C/C=C1\CCC[C@]2(C)[C@@H]([C@H](C)/C=C/[C@H](C)C(C)C)CC[C@@H]12` [ERGOCALCIFEROL], the IC50 entry was “Not Active”.
Same read-out and setting: the value for `CCc1cccc2c3c([nH]c12)C(CC)(CC(=O)O)OCC3` (stereo unspecified) [ETODOLAC] was “Not Active”.
In the case of CARBOPLATIN, the IC50 entry is given as “Not Active” and the Ki entry is given as “Not Active”.
